These results are taken from patent US12162845B1, “3-(4-bromophenyl)-5-((2-isopropyl-5-methylphenoxy)methyl)-1,2,4-oxadiazole as an anti-cancer and antimicrobial compound” (KING FAISAL UNIVERSITY, priority 2023, dated 2024).

Type in all cases: cell-based
One assay relates to Bacillus Cereus. Nature of the assay: Agar plate disc-diffusion, antibacterial inhibition zone. Here is the method:
(§1) The agar plate disc-diffusion method was applied. […] The discs were then placed onto the surface of agar plates (nutrient agar for bacteria and Sabouraud's dextrose agar for fungi) seeded with the test organism. Each plate contained 15 mL of the agar medium, previously seeded with 0.2 mL of the broth culture of each organism pregrown for 18 hours. The plates were incubated at 37° C. for 48 h, and 72 h for fungi. The inhibition zones were measured in mm. Discs impregnated with DMSO were used as a control, and its inhibition zone was subtracted from the tested compound actual inhibition zone.

The test system of the next assay is Escherichia coli. The description is as above. Here is the method:
as §1

The next assay has as its system Pseudomonas aeruginosa. The description is as above. The method, then:
as §1

A further assay relates to Staphylococcus aureus. Described as above. The method, then:
as §1

The subject of another assay is Aspergillus flavus. The assay can be described thus: Agar plate disc-diffusion, antifungal inhibition zone. Here is the method: as §1
Assay [1] deals with Chrysosporium keratinophilum. The description is as above. Here is the method:
as §1

The next assay deals with different microbes. The assay can be described thus: Antimicrobial activity, agar plate disc-diffusion (overall statement). As to conditions: against different microbes, result in words. Here is the method:
The agar plate disc-diffusion method was applied. Sterilized filter papers (6 mm in diameter) were wetted with 10 μL of a solution of 3-(4-bromophenyl)-5-((2-isopropyl-5-methylphenoxy)methyl)-1,2,4-oxadiazole (3) to be tested, containing 10 mg/mL in DMSO, and the discs were allowed to air dry. The discs were then placed onto the surface of agar plates (nutrient agar for bacteria and Sabouraud's dextrose agar for fungi) seeded with the test organism. Each plate contained 15 mL of the agar medium, previously seeded with 0.2 mL of the broth culture of each organism pregrown for 18 hours. The plates were incubated at 37° C. for 48 h, and 72 h for fungi. The inhibition zones were measured in mm. Discs impregnated with DMSO were used as a control, and its inhibition zone was subtracted from the tested compound actual inhibition zone.

In assay [2] the test system is human osteosarcoma cells (MG-63). Nature of the assay: Cytotoxicity by SRB assay. As to conditions: MG-63 cells, 0.01 μM to 100 μM for 72 h, result in words. The text has this:
(§2) The anticancer activity of the described synthesized compounds against highly aggressive androgen-independent metastatic human prostate cancer cells (PC3) and osteosarcoma (MG-63) cells. The human prostate cancer cells (PC3) and human osteosarcoma cells (MG-63) were obtained from Nawah Scientific Inc. (Mokatam, Cairo, Egypt) and cultured in DMEM (Dulbecco's modified eagle's medium), Gibco, USA, supplemented with fetal bovine serum (FBS) at a concentration of 10% and 100 U/mL of penicillin and streptomycin (PS). The Cells were incubated at 37° C. in a humidified environment that contained 5% CO2.
(§3) Cells were seeded in 96-well plates as aliquots of 100 μL cell suspension and incubated in a complete media for 24 h. afterward, cells were treated with 3-(4-bromophenyl)-5-((2-isopropyl-5-methylphenoxy)methyl)-1,2,4-oxadiazole at diverse concentrations ranging from 0.01 μM to 100 μM for 72 h. Then, cells were fixed at 4° C. for one hour with 150 μL of 10% trichloroacetic acid (TCA). […] Then, 150 μL of Tris pH 10.5 (10 mM) was added, and the absorbance was measured at 540 nm using a BMG LABTECH®-FLUOstar Omega microplate reader (Ortenberg, Germany). Half maximal inhibitory concentrations (IC50) values were calculated for each experiment using GraphPad Prism 6 software. […]
(§4) The inhibition was calculated using the following equation: Inhibition %=100−Average Viability
Background: In SRB staining, fixed cells bind dye roughly in proportion to their protein.

The test system of assay [3] is human prostate cancer cells (PC3). Nature of the assay: Cytotoxicity by SRB assay. The note with it: 0.01 μM to 100 μM for 72 h, result in words.
Source text: as §2, §3, §4

[4] abbreviates: A = concentration of comp. = 10,000 μL.
Where [5] appears, read: B = concentration of comp. = 30,000 μL.
Setting [6] is: C = concentration of comp. = 50,000 μL.

Consider `Cc1ccc(C(C)C)c(OCc2nc(-c3ccc(Br)cc3)no2)c1` [compound 3, 3-(4-bromophenyl)-5-((2-isopropyl-5-methylphenoxy)methyl)-1,2,4-oxadiazole], for which the inhibition zone is 25 mm in the assay with Bacillus Cereus (setting [4]); 27 mm in the assay on Bacillus Cereus (setting [5]); 42 mm in the assay on Bacillus Cereus (setting [6]); 28 mm with Escherichia coli (setting [4]); 37 mm in the assay on Escherichia coli (setting [5]); 55 mm with Escherichia coli (setting [6]). In addition, the inhibition zone came out at 24 mm in the assay on Pseudomonas aeruginosa (setting [4]); 27 mm in the assay on Pseudomonas aeruginosa (setting [5]); 39 mm in the assay with Pseudomonas aeruginosa (setting [6]); 13 mm in the assay with Staphylococcus aureus (setting [4]); 17 mm in the assay on Staphylococcus aureus (setting [5]); 21 mm in the assay on Staphylococcus aureus (setting [6]). For the same molecule, the inhibition zone turned out to be 17 mm in the assay with Aspergillus flavus (setting [4]); 20 mm in the assay on Aspergillus flavus (setting [5]); 29 mm in the assay with Aspergillus flavus (setting [6]); 26 mm in [1] (setting [4]); 28 mm in assay [1] (setting [5]); 48 mm in assay [1] (setting [6]). Moreover, in the assay on different microbes, the antimicrobial activity result is “excellent antimicrobial activities”.

Consider `Cc1ccc(C(C)C)c(OCc2nc(-c3ccc(Br)cc3)no2)c1` [3-(4-bromophenyl)-5-((2-isopropyl-5-methylphenoxy)methyl)-1,2,4-oxadiazole], for which the antiproliferative activity result in [2] and in assay [3] was “excellent antiproliferative activities” throughout.

Consider `O=C(O)c1cn(C2CC2)c2cc(N3CCNCC3)c(F)cc2c1=O` [Cip., ciprofloxacin, reference compound], for which the inhibition zone in the assay with Bacillus Cereus (setting [4]) is 29 mm; with Bacillus Cereus (setting [5]) it was 30 mm; in the assay with Bacillus Cereus (setting [6]), 42 mm; in the assay with Escherichia coli (setting [4]), 30 mm; in the assay on Escherichia coli (setting [5]), 39 mm; in the assay on Escherichia coli (setting [6]), 60 mm. The inhibition zone in the assay with Pseudomonas aeruginosa (setting [4]) came out at 29 mm; with Pseudomonas aeruginosa (setting [5]), 30 mm; in the assay on Pseudomonas aeruginosa (setting [6]), 53 mm; in the assay with Staphylococcus aureus (setting [4]) it was 43 mm; in the assay on Staphylococcus aureus (setting [5]) it was 44 mm; in the assay on Staphylococcus aureus (setting [6]) it was 53 mm. For the same molecule, the inhibition zone in the assay on Aspergillus flavus (setting [4]) was 29 mm; in the assay on Aspergillus flavus (setting [5]), 30 mm; in the assay with Aspergillus flavus (setting [6]), 42 mm; in [1] (setting [4]), 29 mm; in assay [1] (setting [5]) it was 30 mm; in assay [1] (setting [6]), 53 mm.
